# Results reported in patent US6645966B2, “Treatment of malaria with farnesyl protein transferase inhibitors” (Schering Corporation, priority 2001, dated 2003).
# Like-named read-outs stand apart in the source and are kept apart here.
# How the values were obtained:
# [1] = tested on: P. falciparum (strain C10, partially chloroquine resistant strain); assay: In Vitro Plasmodium falciparum Growth Inhibition Assay ([3H]-hypoxanthine uptake into infected erythrocytes); type: cell-based; details: Erythrocyte
# Experimental: The growth activity of P. falciparum was determined by measuring the uptake of the radiolabeled nucleic acid precursor [3H]-hypoxanthine from the media into infected erythrocytes by a method similar to that reported by Jomaa et al (1999). In this method human red blood cells (RBC) were infected with P. falciparum (strain C10, partially chloroquine resistant strain) to 0.4% parasitemia (0.4% of the RBC contain at least 1 parasite). The infected human RBC cells were adjusted to a hematocrit of 2% and 200 μl was plated into 96 well plates. DMSO solutions of inhibitors were added to the plates to make final concentrations of inhibitors from 20 μM to 0.2 μM and a final concentration of DMSO between 0.2 and 1%. The inhibitor-RBC solutions were incubated for 48 hours followed by the addition of [3H]-hypoxanthine to each well and further incubated for 24 hours. The incorporation of [3H]-hypoxanthine into the parasite DNA was measured by acid precipitating the nucleic acid content onto filters, washing the filters and counting the incorporated radioactivity in a scintillation counter.
melting point,SMILES,other results
80 °C (dec.),N#Cc1ccc(Cn2cncc2CCNC(=O)[C@H]2CN(Cc3ccncc3)CCN2C(=O)NC2CCCCC2)cc1,–
71 to 75 °C,"Clc1ccc2c(c1)CCc1cccnc1C2N1CCC[C@H](Cn2ccnc2)C1 (single isomer, unassigned)",–
–,CCN(CC)CCCC(C)Nc1ccnc2cc(Cl)ccc12 (stereo not shown) [chloroquine],EC50 ([1]; read-out: ED50): 260 nM
–,O=CN(O)CCCP(=O)(O)O [fosmidomycin],"EC50 ([1]; P. falciparum strain C10 in infected human RBC, 0.4% parasitemia, 48 hours incubation then [3H]-hypoxanthine for 24 hours, read-out: ED50 (the source's name)): 600 nM"
